# Data: patent US20010049450A1 (priority 2000, published 2001)
# Structures can show the parent of a compound that is named as a salt.
# Tests used:
# [1] = Crystal particle size distribution and average particle size (SHIMADZU SALD1100, medium diisopropyl ether); format: physicochemical; conditions: for average particle size: average diameter upon conversion of particle volume into sphere; for average particle size / crystal particle size distribution: not less than 10 μm and less than 20 μm / crystal particle size distribution: not less than 20 μm and less than 40 μm / crystal particle size distribution: less than 5 μm / crystal particle size distribution: not less than 40 μm: hydrobromide; for crystal particle size distribution: not less than 10 μm and less than 20 μm: fraction of crystals with 10 μm ≦ D < 20 μm; for crystal particle size distribution: not less than 20 μm and less than 40 μm: fraction of crystals with 20 μm ≦ D < 40 μm; for crystal particle size distribution: less than 5 μm: fraction of crystals with D < 5 μm; for crystal particle size distribution: not less than 40 μm: fraction of crystals with D ≧ 40 μm
# Protocol: The average particle size in the present invention is an average diameter upon conversion of the volume of the crystal particles into sphere. The powder X-ray crystal diffraction and average particle size were measured in the following Reference Example, Examples and Comparative Example, according to the following methods. Average particle size: SHIMADZU CORPORATION SALD1100 (medium:diisopropyl ether)
# [2] = Bulk density and tap density of crystals; format: physicochemical
average particle size [1] [μm],crystal particle size distribution: not less than 10 μm and less than 20 μm [1],crystal particle size distribution: not less than 20 μm and less than 40 μm [1],crystal particle size distribution: less than 5 μm [1],crystal particle size distribution: not less than 40 μm [1],bulk density [2] [g/mL],tap density [2] [g/mL],"fine crystals having a particle size of less than 5 μm (of the total amount) ([1]; crystallized according to the method of U.S. Pat. No. 4,650,884) [%]",Compound
12.9,29.1%,27.0%,17.1%,4.6%,,,,"CN(C)CCCC1(c2ccc(F)cc2)OCc2cc(C#N)ccc21 (single isomer, unassigned) [Example 1, citalopram hydrobromide]"
23.8,20.9%,31.7%,9.6%,25.5%,,,,"CN(C)CCCC1(c2ccc(F)cc2)OCc2cc(C#N)ccc21 (single isomer, unassigned) [Example 4, citalopram hydrobromide]"
14.6,35.5%,29.3%,12.6%,2.4%,0.2,0.42,,"CN(C)CCCC1(c2ccc(F)cc2)OCc2cc(C#N)ccc21 (single isomer, unassigned) [Example 6, citalopram hydrobromide]"
6.3,23.9%,4.0%,41.9%,0%,,,,"CN(C)CCCC1(c2ccc(F)cc2)OCc2cc(C#N)ccc21 (centres unmarked) [Comparative Example 1, citalopram hydrobromide, reference compound]"
7.8,25.7%,12.2%,D < 5 μm 31.4%,D ≧ 40 μm 0.3%,,,,"CN(C)CCCC1(c2ccc(F)cc2)OCc2cc(C#N)ccc21 (centres unmarked) [Example 2, citalopram hydrobromide]"
11.0,31.0%,21.6%,D < 5 μm 19.6%,D ≧ 40 μm 1.6%,,,,"CN(C)CCCC1(c2ccc(F)cc2)OCc2cc(C#N)ccc21 (centres unmarked) [Example 3, citalopram hydrobromide]"
15.1,10 μm ≦ D < 20 μm 26.9%,20 μm ≦ D < 40 μm 31.0%,D < 5 μm 15.6%,D ≧ 40 μm 7.2% (shown,,,,"CN(C)CCCC1(c2ccc(F)cc2)OCc2cc(C#N)ccc21 (centres unmarked) [Example 5, citalopram hydrobromide]"
,,,,,,,41.9,"CN(C)CCCC1(c2ccc(F)cc2)OCc2cc(C#N)ccc21 (centres unmarked) [citalopram hydrobromide, reference compound]"
